pIC50: −log10 of the molar value. Activity calls are given as the source filed them. No cut-off for these calls is given here.
How the values were obtained:
[1] = (§1) Photo selectivity index, ratio of CC50 for darktoxicity in human Bcap37 cells assessed as cell viability preincubated for 24 hrs followed by incubation under dark condition for 24 hrs by MTT assay to IC50 for phototoxicity in human Bcap37 cells assessed as cell viability preincubated for 24 hrs followed by white light irradiation at 20 mW/cm2 for 10 mins and measured after 24 hrs by MTT assay; type: toxicity, cell-based; conditions: read-out: Ratio CC50/IC50
[2] = Phototoxicity in mouse 4T1 cells assessed as cell viability preincubated for 24 hrs followed by white light irradiation at 20 mW/cm2 for 10 mins and measured after 24 hrs by MTT assay; type: functional, cell-based; conditions: 4T1, light or radiation study
[3] = Darktoxicity in human Bcap37 cells assessed as cell viability preincubated for 24 hrs followed by incubation under dark condition for 24 hrs by MTT assay; type: toxicity, cell-based; conditions: time 48 hrs
[4] = as §1, with “MDA-MB-231” for “Bcap37”; type: toxicity, cell-based; conditions: read-out: Ratio CC50/IC50
4T1 [5] = assay: Antitumor activity against mouse 4T1 cells implanted in mouse model assessed as reduction in metastatic tumor at 3 mg/kg, IG measured every two days for 15 days by digital caliper method; type: functional, organism-based; conditions: time 15.0 day
[6] = as §1, with “MCF7” for “Bcap37”; type: toxicity, cell-based; conditions: read-out: Ratio CC50/IC50
[7] = Darktoxicity in human MCF7 cells assessed as cell viability preincubated for 24 hrs followed by incubation under dark condition for 24 hrs by MTT assay; type: toxicity, cell-based; conditions: time 48 hrs
4T1 [8] = assay: Antitumor activity against mouse 4T1 cells implanted in mouse model assessed as reduction in tumor cells at 3 mg/kg, IG measured every two days for 15 days under 80 mW/cm2 for 15 mins by digital caliper method; type: functional, organism-based; conditions: time 15.0 day
[9] = Phototoxicity in human Bcap37 cells assessed as cell viability preincubated for 24 hrs followed by white light irradiation at 20 mW/cm2 for 10 mins and measured after 24 hrs by MTT assay; type: functional, cell-based; conditions: Bcap37, light or radiation study
[10] = Darktoxicity in mouse 4T1 cells assessed as cell viability preincubated for 24 hrs followed by incubation under dark condition for 24 hrs by MTT assay; type: toxicity, cell-based; conditions: time 48 hrs
[11] = Toxicity in mouse assessed as effect on lung in at 3 mg/kg, IG measured after 15 days by H and E staining based analysis; type: organism-based; conditions: in vivo, po, 360 h, time 15 day
[12] = Darktoxicity in human MDA-MB-231 cells assessed as cell viability preincubated for 24 hrs followed by incubation under dark condition for 24 hrs by MTT assay; type: toxicity, cell-based; conditions: time 48 hrs
[13] = Drug localization in Lysosome of mouse 4T1 cells assessed as increase in green fluorescence by measuring pearson correlation coefficient at 2 uM incubated for 12 hrs by confocal scanning microscopy analysis; type: ADME, subcellular; conditions: 4t1, 12 h
4T1 [14] = assay: (§2) Induction of intracellular ROS generation in mouse 4T1 cells assessed as increase in green fluorescence intensity at 5 to 60 nM incubated in dark for 24 hrs followed by compound removal and measured after 5 mins under 20 mW/cm2H2 white light irradiation by H2-DCFDA staining based fluorescence assay; type: functional, cell-based; conditions: dose 5-60 nM
4T1 [15] = assay: Induction of ferroptosis in mouse 4T1 cells assessed as cell viability at 20 nM preincubated for 24 hrs followed by white light irradiation at 20 mW/cm2 and measured after 24 hrs in presence of Fer-1 by MTT assay; type: functional, cell-based; conditions: time 48.0 hrs
[16] = Potency index, ratio of IC50 for Chlorin e6 to IC50 for test compound for phototoxicity in human MDA-MB-231 cells assessed as cell viability preincubated for 24 hrs followed by white light irradiation at 20 mW/cm2 for 10 mins and measured after 24 hrs by MTT assay; type: functional; conditions: time 48 hrs
4T1 [17] = assay: Induction of ferroptosis in mouse 4T1 cells assessed as cell viability at 20 nM preincubated for 24 hrs followed by white light irradiation at 20 mW/cm2 and measured after 24 hrs in presence of 3-MA by MTT assay; type: functional, cell-based; conditions: time 48.0 hrs
[18] = Photosensitizing ability of the compound in NaOH assessed as fluorescence quantum yield; type: functional
4T1 [19] = assay: Induction of ferroptosis in mouse 4T1 cells assessed as cell viability at 20 nM preincubated for 24 hrs followed by white light irradiation at 20 mW/cm2 and measured after 24 hrs in presence of Z-VAD-FMK by MTT assay; type: functional, cell-based; conditions: time 48.0 hrs
[20] = Drug localization in Lipid droplet of mouse 4T1 cells assessed as increase in green fluorescence by measuring pearson correlation coefficient at 2 uM incubated for 12 hrs by confocal scanning microscopy analysis; type: ADME, subcellular; conditions: 4t1, 12 h
4T1 [21] = assay: as §2, with “irradiation in presence of NaN3” for “irradiation”; type: functional, cell-based; conditions: dose 5-60 nM
[22] = Toxicity in mouse assessed as effect on heart in at 3 mg/kg, IG measured after 15 days by H and E staining based analysis; type: organism-based; conditions: in vivo, po, 360 h, time 15 day
[23] = Drug localization in mitochondria of mouse 4T1 cells assessed as increase in green fluorescence by measuring pearson correlation coefficient at 2 uM incubated for 12 hrs by confocal scanning microscopy analysis; type: ADME; conditions: 4t1, 12 h
[24] = Phototoxicity in human MDA-MB-231 cells assessed as cell viability preincubated for 24 hrs followed by white light irradiation at 20 mW/cm2 for 10 mins and measured after 24 hrs by MTT assay; type: functional, cell-based; conditions: MDA-MB-231, light or radiation study
4T1 [25] = assay: Induction of ferroptosis in mouse 4T1 cells assessed as decrease in intracellular GSH level at 10 nM preincubated in dark condition for 24 hrs followed by 20mW/cm2 white light irradiation for 10 mins and measured after 12 hrs by colorimetric assay; type: functional, cell-based; conditions: time 2170.0 min
[26] = as §1, with “mouse 4T1” for “human Bcap37”; type: toxicity, cell-based; conditions: read-out: Ratio CC50/IC50
4T1 [27] = assay: Induction of ferroptosis in mouse 4T1 cells assessed as cell viability at 20 nM preincubated for 24 hrs followed by white light irradiation at 20 mW/cm2 and measured after 24 hrs in presence of Nec-1 by MTT assay; type: functional, cell-based; conditions: time 48.0 hrs
[28] = Drug localization in endoplasmic reticulum of mouse 4T1 cells assessed as increase in green fluorescence at 2 uM incubated for 12 hrs by confocal scanning microscopy analysis; type: ADME, subcellular; conditions: 4t1, 12 h
[29] = Drug localization in Lipid droplet of mouse 4T1 cells assessed as increase in green fluorescence at 2 uM incubated for 12 hrs by confocal scanning microscopy analysis; type: ADME, subcellular; conditions: 4t1, 12 h
[30] = Photosensitizing ability of the compound in EtOH assessed as singlet oxygen quantum yield at 100 nM under 520nm 30 mW/cm2 light irradiation by DPBF reagent based analysis; type: functional
4T1 [31] = assay: Antitumor activity against mouse 4T1 cells implanted in mouse model assessed as infiltration of immune cells at 3 mg/kg, IG measured every two days for 15 days under 80 mW/cm2 for 15 mins by digital caliper method; type: functional, organism-based; conditions: time 15.0 day
[32] = Toxicity in mouse assessed as effect on liver in at 3 mg/kg, IG measured after 15 days by H and E staining based analysis; type: organism-based; conditions: in vivo, po, 360 h, time 15 day
4T1 [33] = assay: Induction of ferroptosis in mouse 4T1 cells assessed as increase in MDA level at 10 nM preincubated in dark condition for 24 hrs followed by 20mW/cm2 white light irradiation for 10 mins and measured after 6 hrs by colorimetric assay; type: functional, cell-based; conditions: time 1810.0 min
[34] = Toxicity in mouse assessed as effect on kidney in at 3 mg/kg, IG measured after 15 days by H and E staining based analysis; type: organism-based; conditions: in vivo, po, 360 h, time 15 day
[35] = Phototoxicity in human MCF7 cells assessed as cell viability preincubated for 24 hrs followed by white light irradiation at 20 mW/cm2 for 10 mins and measured after 24 hrs by MTT assay; type: functional, cell-based; conditions: MCF7, light or radiation study
4T1 [36] = assay: Antitumor activity against mouse 4T1 cells implanted in mouse model assessed as reduction in tumor weight at 3 mg/kg, IG measured every two days for 15 days under 80 mW/cm2 for 15 mins by digital caliper method; type: functional, organism-based; conditions: time 15.0 day
4T1 [37] = assay: Antitumor activity against mouse 4T1 cells implanted in mouse model assessed as tumor growth inhibition at 3 mg/kg, IG measured every two days for 15 days under 80 mW/cm2 for 15 mins by digital caliper method relative to control; type: functional; conditions: 4T1, po, 360 h, time 15 day, read-out: TGI
[38] = Toxicity in mouse assessed as effect on spleen in at 3 mg/kg, IG measured after 15 days by H and E staining based analysis; type: organism-based; conditions: in vivo, po, 360 h, time 15 day
4T1 [39] = assay: Antitumor activity against mouse 4T1 cells implanted in mouse model assessed as reduction in tumor growth at 3 mg/kg, IG measured every two days for 15 days by digital caliper method; type: functional, organism-based; conditions: time 15.0 day

COC(=O)c1cc2c3ccccc3n(C)c2c(C2=C3C(C)=C(I)C(C)=[N+]3[B-](F)(F)n3c(C)c(I)c(C)c32)n1
selectivity ratio [1]: > 8830 | pIC50 [2]: 7.72 | CC50 at 24 h [3]: > 100000 nM | selectivity ratio [4]: > 9960 | Activity (4T1 [5]): Active | selectivity ratio [6]: > 7750 | CC50 at 24 h [7]: > 100000 nM | Activity (4T1 [8]): Active | pIC50 [9]: 7.96 | CC50 at 24 h [10]: > 100000 nM | Activity [11]: Non-toxic | CC50 at 24 h [12]: > 100000 nM | Activity [13]: 0.53 | Activity (4T1 [14]): Active | Activity (4T1 [15]): Active | Ratio IC50 [16]: 38 | Activity (4T1 [17]): inactive | Activity [18]: 0.22 | Activity (4T1 [19]): inactive | Activity [20]: 0.93 | Activity (4T1 [21]): inactive | Activity [22]: Non-toxic | Activity [23]: 0.49 | pIC50 [24]: 8.00 | Activity (4T1 [25]): Active | selectivity ratio [26]: > 5290 | Activity (4T1 [27]): inactive | Drug uptake [28]: Active | Drug uptake [29]: Active | Activity [30]: 0.78 | Activity (4T1 [31]): Active | Activity [32]: Non-toxic | Activity (4T1 [33]): Active | Activity [34]: Non-toxic | pIC50 [35]: 7.89 | Activity (4T1 [36]): Active | inhibition in vivo at 3 mg/kg (4T1 [37]): 67.6% | Activity [38]: Non-toxic | Activity (4T1 [39]): inactive

From ChEMBL document CHEMBL6103570, “An endoplasmic reticulum and lipid droplets dual-localized strategy to develop small molecular photosensitizers that induce ferroptosis during photodynamic therapy” (Eur J Med Chem, 2025)
